Values joined by “and” are separate entries in the source; they are usually repeats but may differ in a detail not shown here. Equal entries are not always repeated. Marks after values point to notes of the source that are not given here.

In data set [1] the test system is GABAA receptor-ion channel complex (forebrain). Nature of the data set: In vivo inhibition of 3H-FNM binding. On the set-up: species or system mouse. The settings on record: female NMRI mice, test substance i.v., inhibition of specific [3H]FNM binding in forebrain. The protocol:
13B: In vivo inhibition of ^3H-FNM binding
[^3H]FNM can also be used for in vivo receptor labelling studies in mouse. Accumulation of [^3H]FNM binding will occur all over the brain as GABAA receptors are widely distributed.
All test substances used are solutions prepared in 10% TWEEN 80. Groups of three female NMRI mice (25 g) are injected i.v. via the tail vein with 5.0 μCi of [3H]FNM in 0.2 ml saline. Fifteen min after injection with [^3H]FNM the test substance is administered i.v. Twenty min after injection with [^3H]FNM, mice are killed by decapitation, the forebrains rapidly excised and homogenized in 12 ml of ice-cold 50 mM Tris-citrate, pH 7.1 using an Ultra-Turrax homogenizer. Three aliquots of 1 ml are immediately filtered through GF/C glass fibre filters and washed with 2×5 ml of ice-cold buffer. The amounts of radioactivity on the filters and in 200 μl of the homogenate are determined by conventional scintillation counting. Groups of untreated mice serves as controls. To determine non-specific binding groups of mice are injected with Clonazepam (25 mg/kg) i.p. 10 min before [3H]FNM injection. Specific binding is the amount of binding in controls minus the amount of binding in Clonazepam treated mice.
The ED50 value is determined from dose response curves. […] [formula]
where Co is specific binding in controls and Cx is the specific binding in mice treated with test substance.

Data set [2] relates to pigs. Kind of data set: Evaluation of efficacy: anaesthesia after bolus injection. Type of data set: in vivo. The settings on record: pigs 25-30 kg; for Induction Time / Maintained anaesthesia / Normalising time following awakening: i.v. bolus, dose per compound as in Table 10 (0.03-3 mg/kg). The protocol:
Aqueous solutions of the test substances (50 mg/ml isotonic glucose) were administered to pigs (25-30 kg) as bolus injections. The actual dose of each substance is included in the table below.
These observations are compiled in Table 10 below. This table also provides comparative data for compounds of the prior art (WO 98/17651).

For data set [3], the system named is clonic convulsions induced by pentylenetetrazol (PTZ). Kind of data set: PTZ clonic convulsions. Type of data set: in vivo. As to conditions: female NMRI mice; for ED100: i.v., dose increasing the PTZ threshold to 100 mg PTZ/kg (linear regression); for ptz threshold at 30 mg/kg: test substance 30 mg/kg i.v., PTZ infused after 5 min, vehicle threshold 37-39 mg PTZ/kg. Here is the method: The purpose of this test is to show antagonism of clonic convulsions induced by pentylenetetrazol (PTZ). PTZ induces clonic convulsions in mice after i.v. infusion. Antagonism of PTZ-induced convulsions is a measure for the agonistic character of ligands for the benzodiazepine recognition site.
Female NMRI mice (Bomholdtgaard, Ry), 20 g, 6 mice in each group are administered i.v. with vehicle or test substance. After five minutes the PTZ-solution is infused intravenously at a speed of 0.7 ml/minute through a cannula placed in the tail vein. The time from initiation of the infusion to appearance of clonic convulsions is recorded.
The dose of PTZ required for inducing convulsion in each mouse is calculated as PTZ/kg body weight. Means ±sd for each experimental group of 6 mice is calculated. ED100 is calculated by linear regression expressing the dose increasing the PTZ threshold to 100 mg PTZ/kg.
The threshold of vehicle treated controls is in the range of 37-39 mg PTZ/kg. As a control in each series of experiments PTZ is infused into 6 vehicle treated mice.

Data set [4] deals with benzodiazepine receptor (GABAA receptor complex), cerebral cortex membranes. Kind of data set: In vitro inhibition of 3H-flunitrazepam (3H-FNM) binding. The settings on record: inhibition of specific 3H-FNM (1 nM) binding, rat cerebral cortex membranes. The protocol:
The GABA recognition site and the benzodiazepine modulatory unit can selectively be labelled with ^3H-muscimol and ^3H-flunitrazepam, respectively.
13A: In vitro inhibition of ^3H-flunitrazepam (^3H-FNM) binding
Preparations are performed at 0-4° C. unless otherwise indicated. Cerebral cortex from male Wistar rats (150-200 g) is homogenised for 5-10 sec in 20 ml Tris-HCl (30 mM, pH 7.4) using an Ultra-Turrax homogeniser. The suspension is centrifuged at 27,000× g for 15 min and the pellet is washed three times with buffer (centrifuged at 27,000× g for 10 min). The washed pellet is homogenized in 20 ml of buffer and incubated on a water bath (37° C.) for 30 min to remove endogenous GABA and then centrifuged for 10 min at 27,000× g. The pellet is then homogenized in buffer and centrifuged for 10 min at 27,000× g. The final pellet is resuspended in 30 ml buffer and the preparation is frozen and stored at −20° C.
The membrane preparation is thawed and centrifuged at 2° C. for 10 min at 27,000× g. The pellet is washed twice with 20 ml 50 mM Tris-citrate, pH 7.1 using an Ultra-Turrax homogeniser and centrifuged for 10 min at 27,000× g. The final pellet is resuspended in 50 mM Tris-citrate, pH 7.1 (500 ml buffer per g of original tissue), and then used for binding assays. Aliquots of 0.5 ml tissue are added to 25 μl of test solution and 25 μl of ^3H-FNM (1 nM, final concentration), mixed and incubated for 40 min at 2° C., Non-specific binding is determined using Clonazepam (1 μM, final concentration). After incubation the samples are added 5 ml of ice-cold buffer and poured directly onto Whatman GFIC glass fibre filters under suction and immediately washed with 5 ml ice-cold buffer. The amount of radioactivity on the filters is determined by conventional liquid scintillation counting. Specific binding is total binding minus non-specific binding.
The test value will be given as IC50 (the concentration (μM) of the test substance which inhibits the specific binding of ^3H-FNM by 50%). [formula]
Co is specific binding in control assays, and
Cx is the specific binding in the test assay.
(The calculations assume normal mass-action kinetics).

On to `CCOC(=O)CN1CCN(c2cccc(-n3cnc4cc(C(=O)OCCOC)ccc43)c2)CC1` [Compound 1b, 2-Methoxyethyl 1-(3-(4-(ethoxy-carbonyl-methyl)-1-piperazinyl)-phenyl)-benzimidazole-5-carboxylate], for which the “In vivo binding ED50” value in data set [1] is listed as 0.9 mg/kg. For the same compound, in data set [2], the “Induction Time” value was 1.3 min, the Maintained anaesthesia was 10^ min and the “Normalising time following awakening” value stood at 15 min. Further, in data set [3], the ED100 came to 1.6 mg/kg and the “ptz threshold at 30 mg/kg” value is on record as 200 mg/kg. For the same compound, in data set [4], the IC50 came to 260 nM.
`CCOC(=O)CN1CCC(c2cccc(-n3cnc4cc(-c5ccoc5)ccc43)c2)CC1` [Compound 7g, 5-(3-Furanyl)-1-(3-(1-ethoxycarbonylmethyl-4-piperidyl)-phenyl)-benzimidazole]: the melting point was 114.5 to 115 °C and 114 to 115 °C. Moreover, the “In vivo binding ED50” value in data set [1] is 1.4 mg/kg. In data set [3], the ED100 came out at 1.2 mg/kg and the “ptz threshold at 30 mg/kg” value came out at 200 mg/kg. Besides, the 50% inhibitory concentration (IC50) in data set [4] was 0.9 nM.
Turning to `CCOC(=O)N1CCN(c2cccc(-n3cnc4cc(-c5ccoc5)ccc43)c2)CC1` [Compound 7i, 5-(3-Furanyl)-1-(3-(1-ethoxycarbonyl-4-piperazinyl)-phenyl)-benzimidazole], the melting point lay within 131 to 132 °C. Moreover, in data set [1], the “In vivo binding ED50” value amounted to 1.8 mg/kg. Also, in data set [3], the ED100 is given as 2.5 mg/kg and the “ptz threshold at 30 mg/kg” value is reported as 140 mg/kg. In data set [4], this compound had an IC50 of 0.8 nM.
The like results for `COC(=O)c1cn(-c2cccc(-n3cnc4cc(-c5ccoc5)ccc43)c2)cn1` [Compound 7c, 5-(3-Furanyl)-1-(3-(4-methoxycarbonyl-1-imidazolyl)-phenyl)-benzimidazole] were, in that order, 221 to 223 °C, 0.43 mg/kg, 20 mg/kg, 110 mg/kg and 0.7 nM.
On to `CC(=O)N1CCN(CCOC(=O)c2cccc(-n3cnc4cc(-c5ccoc5)ccc43)c2)CC1` [Compound 7j, 2-(1-Acetyl-4-piperazinyl)-ethyl 3-(5-(3-furanyl)-1-benzimidazolyl)-benzoate], for which the “In vivo binding ED50” value in data set [1] was found to be 1.9 mg/kg. Also, the “Observation on anaesthesia (footnote to Maintained anaesthesia)” value in data set [2] (bolus 3 mg/kg) is recorded as “^aUneasy sleep”. Moreover, in data set [2], the “Induction Time” value was found to be 0.5 min, the Maintained anaesthesia is on record as 8^a min and the “Normalising time following awakening” value was determined as 20 min. In data set [3], the ED100 came out at 13 mg/kg and the “ptz threshold at 30 mg/kg” value is given as 170 mg/kg. In data set [4], this compound gave an IC50 of 2.8 nM.

The values are drawn from patent publication US6649609B2, “Benzimidazole derivatives and pharmaceutical compositions comprising these compounds” (Neurosearch A/S, priority 1999, dated 2003).
